Read-outs that look alike come from different tables or passages of the source.

As a reminder, the logD is the decadic logarithm of the distribution of all forms, ionised or not, between an organic phase and buffer at a given pH. The low end stands for lower lipophilicity, the high end for higher lipophilicity. One may read the IC50 as the concentration needed to halve the response being measured. A high value points to weaker potency. As a reminder, the fraction unbound is the share of the substance not bound to proteins or other matrix. A word on the Cmax: it is the peak of the concentration-time curve.

One data set can be described thus: Lipophilicity. It counts as physicochemical. An excerpt:
Table 3 In vitro physicochemical and ADME properties of SCYX-7158. | column: Value

The next data set addresses hERG potassium channel (Homo sapiens, UniProt Q12809). Briefly: hERG radioligand binding assay. Conditions: at 10 µM. A general note: The hERG channel carries a current that helps repolarise heart muscle cells.
Data set [1] deals with T1, hERG channel expressed in HEK-293 cells (Homo sapiens, UniProt Q12809).
T1 construct: expressed in transfected cells; host or cells: HEK-293
T1 sequence (Q12809 whole entry): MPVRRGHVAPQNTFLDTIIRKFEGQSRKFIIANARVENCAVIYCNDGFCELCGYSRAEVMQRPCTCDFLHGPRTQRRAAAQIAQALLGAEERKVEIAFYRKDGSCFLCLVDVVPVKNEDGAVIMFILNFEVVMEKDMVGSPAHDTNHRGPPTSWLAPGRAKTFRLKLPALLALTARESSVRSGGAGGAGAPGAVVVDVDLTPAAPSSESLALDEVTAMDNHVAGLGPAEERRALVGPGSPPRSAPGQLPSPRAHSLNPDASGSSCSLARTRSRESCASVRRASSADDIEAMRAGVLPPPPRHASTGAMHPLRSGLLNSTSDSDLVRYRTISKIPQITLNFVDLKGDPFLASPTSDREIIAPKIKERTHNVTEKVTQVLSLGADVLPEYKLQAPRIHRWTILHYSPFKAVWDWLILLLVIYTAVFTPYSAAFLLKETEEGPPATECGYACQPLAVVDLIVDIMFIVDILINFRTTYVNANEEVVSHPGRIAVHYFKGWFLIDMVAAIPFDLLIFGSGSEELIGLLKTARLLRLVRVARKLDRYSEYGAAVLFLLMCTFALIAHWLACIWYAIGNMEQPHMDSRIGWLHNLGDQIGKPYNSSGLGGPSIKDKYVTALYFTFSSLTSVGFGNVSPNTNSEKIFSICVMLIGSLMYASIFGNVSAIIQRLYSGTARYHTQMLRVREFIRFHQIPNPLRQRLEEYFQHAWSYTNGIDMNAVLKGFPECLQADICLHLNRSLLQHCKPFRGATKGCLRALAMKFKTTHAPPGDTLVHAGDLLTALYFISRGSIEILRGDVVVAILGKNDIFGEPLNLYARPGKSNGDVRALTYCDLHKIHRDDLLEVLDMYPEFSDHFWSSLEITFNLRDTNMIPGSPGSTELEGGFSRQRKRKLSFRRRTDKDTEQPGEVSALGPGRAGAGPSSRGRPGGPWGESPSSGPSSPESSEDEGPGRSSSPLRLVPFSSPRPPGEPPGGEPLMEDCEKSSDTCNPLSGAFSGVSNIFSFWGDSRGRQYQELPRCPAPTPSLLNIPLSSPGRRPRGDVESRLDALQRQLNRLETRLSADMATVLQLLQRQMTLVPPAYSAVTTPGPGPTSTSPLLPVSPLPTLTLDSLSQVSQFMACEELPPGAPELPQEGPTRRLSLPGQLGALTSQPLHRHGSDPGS
Briefly: hERG whole-cell patch clamp. It counts as cell-based.

Data set [2] can be described thus: Plasma protein binding by rapid equilibrium dialysis. It counts as in vitro ADME. Conditions: for fraction unbound at 4 h: read-out: unbound fraction (fu). Here is the method:
(§1) Binding to human or mouse plasma proteins or mouse brain homogenate was determined by rapid equilibrium dialysis (RED) (Pierce, Rockford, IL) using a 48-well plate-based format according to the manufacturer's instructions. Briefly, test compound at the required concentrations was added to fresh human or mouse plasma (Bioreclamation, Liverpool, NY) or freshly prepared mouse brain homogenate. Duplicate aliquots of each sample were transferred into the sample chambers of the RED devices, and dialysis buffer (BupH PBS) was added to the buffer chambers. The plates were sealed and incubated at 37°C for 4 h. After dialysis, samples collected from the buffer and tissue chambers were treated with ice-cold methanol (3 volumes for plasma, 4 volumes for brain) to precipitate proteins. The treated samples were centrifuged for 10 min at 3×10^3 g at 15°C. The supernatants were assayed for test compound by LC-MS/MS. Calibration standards and quality control samples were prepared in matched matrix and assayed with samples. Values for unbound and bound fractions and mass balance were calculated. Concordance of binding for each batch of plasma was confirmed by assay of warfarin, imipramine and carbamezapine. Acceptance criterion for mass balance was 70–120%.
A general note: In equilibrium dialysis only unbound substance equilibrates across the membrane.

Data set [3] is described as follows: Stability in plasma or brain homogenate. It counts as in vitro ADME. Conditions: incubated with plasma or brain homogenate for 4 h at 37°C. How it is done:
as §1, with “[…] The stability of each oxaborole in the CNS tissue was evaluated by incubation in fresh rodent brain homogenate. […] Supernatants from the incubation mixtures were analyzed” for “Acceptance criterion”, “parent compound by LC-MS/MS.” for “mass balance was 70–120%.”

The nature of data set [4]: Steady-state pharmacokinetics in T. brucei-infected mice. It counts as in vivo, mouse. Conditions: for AUC(0-inf) / Cmax: mouse; for AUC(0-inf): read-out: AUC0-inf in brain tissue. Here is the method:
The blood distribution, CNS disposition and pharmacokinetics of SCYX-7158 were evaluated in infected or non-infected rodents following intravenous or oral administration of compounds. Pharmacokinetics and bioavailability of SCYX-7158 were also evaluated in non-infected beagle dogs and cynomolgus monkeys. In-life phases of non-infected rodent studies were performed at Vivisource (Waltham, MA); studies in non-naïve cynomolgus monkeys were performed by SNBL USA (Everett, WA).
Samples of plasma (25 µL) and CSF (10 µL) were treated with 3 volumes of ice-cold methanol (containing 25 ng/mL of 2-chloro-4-fluoro-N-(1-hydroxy-1,3-dihyrobenzo[c][1], [2]oxaborol-6-yl)benzamide or 25 ng/mL d6-SCYX-7158 as an internal standard) to precipitate proteins. Treated samples were gently mixed at room temperature for 10 min, and then centrifuged at approximately 3000×g for 15 min at 15°C. The supernatants were transferred to 96-well plates or HPLC vials for analysis by LC-MS/MS.
Pharmacokinetic parameters were calculated from composite mean plasma or tissue data using non-compartmental (oral and intravenous routes) and bi-exponential (intravenous route) analyses in Microsoft Excel.

Sequence of hERG potassium channel (Q12809 whole entry): as above

In the data set “Lipophilicity”, `CC1(C)OB(O)c2cc(NC(=O)c3ccc(F)cc3C(F)(F)F)ccc21` [SCYX-7158] gave a logD of 3.51. On hERG potassium channel, the “binding to hERG channel” value was −6%. In addition, the mean fractional block in data set [1] (30 µM) is given as 0.108±0.037; in data set [1] (100 µM), 0.198±0.018. The IC50 in data set [1] (indicated by patch clamp fractional block) was > 100 µM. The fraction unbound at 4 h, 1 µg/mL in data set [2] (human plasma) stood at 0.013; in data set [2] (mouse, mouse plasma), 0.0032. The fraction unbound at 4 h, 50 µg/mL is 0.055 in data set [2] (human plasma) and 0.0463 in data set [2] (mouse, mouse plasma). Besides, the free fraction (fraction unbound) at 4 h in data set [2] (mouse, mouse plasma at the MIC (∼0.6 µg/mL)) amounted to 0.003; in data set [2] (mouse, mouse plasma at ∼15 µg/mL (Cmax at steady-state)), 0.032. Besides, in data set [3], the stability result is recorded as “stable”. The “time brain concentrations maintained at or above the MIC (0.6 µg/mL)” value in data set [4] (25 mg/kg dose) is reported as ~24 h. For the same compound, the AUC(0-inf) in data set [4] (Swiss Webster, brain, 12.5 mg/kg oral, 7 daily doses, infected mice) worked out at 34200 ng·h/mL; in data set [4] (Swiss Webster, brain, 25 mg/kg oral, 7 daily doses, infected mice), 81500 ng·h/mL. For the same compound, the peak concentration (Cmax) in data set [4] (Swiss Webster, brain, 12.5 mg/kg oral, 7 daily doses, infected mice, read-out: Cmax in brain tissue) was 6540 ng/mL; in data set [4] (Swiss Webster, brain, 25 mg/kg oral, 7 daily doses, infected mice, read-out: Cmax in brain tissue), 12000 ng/mL; in data set [4] (plasma, 25 mg/kg doses, read-out: plasma Cmax at steady-state) it was ~15000 ng/mL.

Values taken from PMC3125149, “SCYX-7158, an Orally-Active Benzoxaborole for the Treatment of Stage 2 Human African Trypanosomiasis” (PLoS Neglected Tropical Diseases, 2011).
